# Legend:
# Type in all cases: cell-based
# [1] = system: process that transports GPI-anchored proteins to the cell wall; experiment: S. cerevisiae reporter system (cephalosporinase-CWP2 fusion, CW63 strain); settings: S. cerevisiae reporter system of Example A2, cell wall fraction
# Method: Since sensitivity of the enzyme reaction is better with cephalosporinase compared to lysozyme, S. cerevisiae introduced with pRCW63T (S. cerevisiae CW63 strain) was used for the screening of compounds.
# (§1) After stationary cultivation in YPD liquid medium at 30° C. for 48 hours, the yeast cell culture was diluted 100 times with YPD liquid medium (3-5×10^5 cells/ml) and 75 μl/well aliquots thereof were inoculated into a V-bottomed 96-well plate containing 25 μl/well of a diluted test sample, and this was subjected to stationary cultivation at 30° C. for 48 hours. After centrifuging the plate, 25 μl of the supernatant was sampled and placed in a flat-bottomed 96-well plate, and this was used as the culture supernatant fraction.
# The precipitated cells were suspended, and 75 μl/well aliquots of Zymolyase (Seikagaku Corporation) solution prepared with 2.4 M sorbitol were added and were allowed to react at 30° C. for 1 hour. After centrifuging the plate, 10 μl of the supernatant was sampled and placed in a flat-bottomed 96-well plate, 15 μl of phosphate buffer was added, and this was used as the cell wall fraction.
# The cephalosporinase activities in the medium and in the cell wall fraction were measured by adding 200 μM of nitrocefin solution to a pooled sample, and after a certain period of time, stopping the reaction with citric acid buffer, and then measuring the absorbance at 490 nm.
# Compounds were evaluated using the S. cerevisiae reporter system of Example A2. The lowest concentration at which cephalosporinase activity in the cell wall fraction became 50% or less compared to that obtained where the compound was not treated, was defined to be the IC50 value.
# [2] = system: mutant GWT1 gene (R1 or R5); experiment: Growth of GWT1-disrupted S. cerevisiae clone harbouring mutant GWT1 gene (R1 or R5) plasmid; settings: chromosomal GWT1 disrupted, pRS316GWT1-R1 or pRS316GWT1-R5, medium containing the compound
# Method: S. cerevisiae LW63 strain having a lysozyme gene as the reporter gene due to introduction of pRLW63T was treated with ethyl methanesulfonate, then by culturing in a SD medium containing the aforementioned compound of the formula (Ia) at concentrations of 1.56, 3.13, and 6.25 μg/ml at 37° C. for 3 days, five resistant mutant strains (R1 to R5) were obtained. […] To confirm whether or not these two mutant strains have mutations on the GWT1 gene, genomic DNAs were extracted from both mutant strains, and the nucleotide sequence of the GWT1 gene portion was determined. As a result, in the R1 mutant strain, guanine at position 1213 had been mutated to adenine. Furthermore, in the R5 mutant strain, guanine at position 418 had been mutated to adenine. Therefore, it was elucidated that in the R1 mutant strain, the 405th amino acid, […], and in the R5 mutant strain, the 140th amino acid, glycine, had been changed to arginine.
# Next, to confirm whether or not these mutations are the cause of the acquisition of the specific resistant characteristic to the aforementioned compound of the formula (Ia), the mutant GWT1 gene (R1 or R5) was isolated using the genomic DNAs derived from both mutant strains as templates and the primers of SEQ ID NOs: 60 and 61. […]
# [3] = system: adhesion of C. albicans to animal cells; experiment: Adhesion of C. albicans to animal cells (IEC-18); settings: 1.56 μg/ml, immobilized IEC-18 cells, FIG. 3
# Method: Three-milliliter aliquots of IEC-18 cells (1×10^5 cells/ml in D-MEM medium (Nissui Pharmaceutical) containing 10% fetal calf serum and 2 mM glutamine) were placed in each well of a 6-well multi-well plate. The plate was incubated in a carbon dioxide gas incubator at 37° C. for 3 days, the culture supernatant was removed, and ethanol immobilization was carried out.
# C. albicans cultured in Sabouraud Dextrose Liquid Medium containing various concentrations of the test sample at 30° C. for 48 hours was adjusted to 4×10^2 cells/ml, and 1 ml was inoculated into each well of the plate in which the immobilized IEC-18 cells were cultured. After cultivation at 30° C. for 1 hour, the culture supernatant was removed, washed with PBS, and then 2 ml of Sabouraud Dextrose Agar Medium (Difco) was superposed. After cultivation at 30° C. overnight, the number of colonies (CFU) that had grown was counted and the adhesion rate was calculated.
# [4] = system: process that transports GPI-anchored proteins to the cell wall; experiment: Reporter system in S. cerevisiae overexpressing the GWT1 gene product (CW63/GWT1 strain); settings: 0.39 to 1.56 μg/ml, FIG. 6
# Method: (§2) S. cerevisiae CW63 strain having a cephalosporinase gene as the reporter gene was cultured by the method according to Example A1, TRP1 of the integration vector was cleaved with EcoRV, and then transformation was carried out by the method of Example A1. GWT1-overexpressed strain (S. cerevisiae CW63/GWT1 strain) was obtained by culturing in SD(Trp^−) medium at 30° C. for 3 days.
# (§3) Using S. cerevisiae CW63 strain and GWT1 gene introduced S. cerevisiae CW63/GWT1, activity of the aforementioned compound (Ia) was examined by a method according to the method described in Example A2.
# C. albicans cell wall = experiment: Transmission electron microscopy of the C. albicans cell wall; settings: C. albicans cultured in the presence of the compound, compared to untreated cells
# Method: C. albicans which was cultured in Sabouraud Dextrose Liquid Medium (5 ml) containing various concentrations of the test agent at 30° C. for 48 hours, then centrifuged, and collected, was immobilized by potassium permanganate immobilization method, and the transmission electron microscope image thereof was observed.
# This flocculent fibrous structure was not influenced by other existing antifungal agents.
# C. albicans = experiment: Growth of C. albicans in the presence of the compound
# [5] = system: S. cerevisiae CW63/GWT1 strain; experiment: Growth of GWT1-overexpressed S. cerevisiae CW63/GWT1 strain; settings: for sensitivity or resistance of the GWT1-overexpressed strain: GWT1-overexpressed strain compared with wild type strain
# Method: as §2, §3
# GWT1-deficient strain = experiment: Growth of GWT1-deficient S. cerevisiae strain
# Method: His5 cassette containing the GWT1 sequence on both ends was amplified by PCR using the his5 gene of S. pombe (Longtine M S et al, Yeast, 14: 953-961, 1998) as template and SEQ ID NO:25 and SEQ ID NO:26 as primers.
# S. cerevisiae G2-10 was cultured and the cells were collected by the method according to Example A1, and the abovementioned PCR product was transformed by the method according to Example A1. A GWT1-deficient strain was obtained by cultivation in SD(His^−) medium at 30° C. for 5 to 7 days.
# [6] = system: S. cerevisiae CW63 strain; experiment: Fungal growth of S. cerevisiae CW63 strain by visual observation; settings: FIG. 2
# Method: as §1
# Furthermore, fungal growth in the presence of the test sample was determined by visual observation.
SMILES,IC50 (lowest concentration at which cephalosporinase activity in the cell wall fraction became 50% or less compared to no compound) [1],sensitivity or resistance of the GWT1-overexpressed strain [5],other results
"CCCCc1ccc(Cc2nccc3sccc23)cc1 [Example B187, 4-(4-Butylbenzyl)thieno[3,2-c]pyridine]",0.78 µg/mL,,
"CCCCc1ccc(Cc2nccc3ccccc23)cc1 [compound (Ia), 1-(4-butylbenzyl)isoquinoline]",,showing resistance,"resistance of clone expressing a single copy of mutant GWT1 gene (R1 or R5) [2]: resistance to the aforementioned compound of the formula (Ia) was seen; adhesion of C. albicans to animal cells [3]: inhibited to about a half; influence on cephalosporinase activity in culture supernatant and cell wall fractions [4]: no influence was observed; flocculent fibrous structure of the outermost layer of the cell having high electron density (C. albicans cell wall): disappeared leaving a small amount of the layer with high electron density; growth inhibition of C. albicans (C. albicans; 1.56 μg/ml): growth inhibition cannot be observed; growth of C. albicans (C. albicans; no concentration stated): inhibits the growth; growth inhibition ([5]; CW63/GWT1 strain, >3.13 μg/ml, FIG. 6): growth inhibition was not observed; influence on growth of the GWT1-deficient strain (GWT1-deficient strain): growth is not influenced; concentration at which growth inhibition was observed [6]: ≥ 3.13 µg/mL"
CCCCNC(=O)n1c(NC(=O)OC)nc2ccccc21 [benomyl],,sensitive,
"CCCCc1ccc(Cc2ncccc2OC)cc1 [Example B231, 2-(4-Butylbenzyl)-3-methoxypyridine]",0.78 µg/mL,,
C[C@@H]1C[C@@H]([C@H](O)CC2CC(=O)NC(=O)C2)C(=O)[C@@H](C)C1 [cycloheximide],,sensitive,
"CCCCc1ccc(Cc2nccc3ccccc23)cc1 [Example B2, 1-(4-Butylbenzyl)isoquinoline]",0.39 µg/mL,,
C[C@@H]1[C@H](O)[C@@H](C)/C=C/C=C/C=C/C=C/C=C/C=C/C=C/[C@H](O[C@@H]2O[C@H](C)[C@@H](O)[C@H](N)[C@@H]2O)C[C@@H]2O[C@](O)(C[C@@H](O)C[C@@H](O)[C@H](O)CC[C@@H](O)C[C@@H](O)CC(=O)O[C@H]1C)C[C@H](O)[C@H]2C(=O)O [amphotericin B],,sensitive,
"CC(=O)NCC#Cc1ccc(Cc2nccc3ccccc23)cc1 [Example B60, N-{3-[4-(1-Isoquinolylmethyl)phenyl]-2-propynyl}acetamide]",6.25 µg/mL,,
"CCCCc1ccc(Cc2nccc(OC)c2OC)cc1 [Example B242, 2-(4-Butylbenzyl)-3,4-dimethoxypyridine]",0.78 µg/mL,,
"CC(=O)N(C)CCCc1ccc(Cc2nccc3ccccc23)cc1 [Example B73, N-{3-[4-(1-isoquinolylmethyl)phenyl]propyl}-N1-methylacetamide]",50 µg/mL,,
"CCCCc1ccc(Cc2nccc3ccsc23)cc1 [Example B195, 7-(4-Butylbenzyl)thieno[2,3-c]pyridine]",0.39 µg/mL,,
"CCCCc1ccc(Cc2nccc3ccccc23)c(O)c1 [Example B85, 5-Butyl-2-(1-isoquinolylmethyl)phenol]",0.20 µg/mL,,
